Columns and labels:
[1] = system: TNFα-induced NF-κB activation; test: HEK-Blue CD40L NF-κB reporter gene assay, TNFα stimulus; format: cell-based; conditions: TNFα 0.5 ng/mL
Protocol: (§1) Stimulation of HEK-293 cells by TNF-alpha leads to activation of the NF-kB pathway. The reporter cell line used to determine TNF alpha activity was purchased from Invivogen. HEK-Blue™ CD40L, is a stable transfectant expressing SEAP (secreted alkaline phosphatase) under the control of the IFN-beta minimal promoter fused to 5 NF-kB binding sites. Secretion of SEAP by these cells is stimulated in a concentration dependent manner by TNF-alpha (0.5 ng/ml), IL-1-beta (0.5 ng/ml) and an activating anti-human TNFR1 antibody (300 ng/ml).
Compounds were diluted from 10 mM DMSO stocks (final assay concentration 0.3%) to generate a 10 point 3 fold serial dilution curve (30,000 nM to 2 nM final concentration). They were mixed with stimulating ligand for 1 hour in a 384 well microtitre plate. […] SEAP activity was determined in the supernatant using the colorimetric substrate Quanti-Blue™ (Invivogen).
(§2) Percentage inhibitions for compound dilutions were calculated between a DMSO control and maximum inhibition (by excess control compound) and an IC50 calculated using xlfit (4 parameter logistic model) in Activity Base.
C87 was preincubated with TNFα for 1 hour prior to the addition to HEK-293 cells stably transfected with SEAP under the control of NFκB. […] The assay was incubated overnight before inhibition was measured compared to 100% blocking by a control compound. […]

TNF-R1 = test: HEK-Blue NF-κB reporter gene counterscreen, activating TNF-R1 antibody stimulus; format: cell-based, human; conditions: antibody 300 ng/mL
Protocol: as §1
Compounds were diluted from 10 mM DMSO stocks (final assay concentration 0.3%) to generate a 10 point 3 fold serial dilution curve (30,000 nM to 2 nM final concentration). They were mixed with stimulating ligand for 1 hour in a 384 well microtitre plate. Freshly thawed and washed cells were added to the compound/stimulus mixture and further incubated for 18 hours. SEAP activity was determined in the supernatant using the colorimetric substrate Quanti-Blue™ (Invivogen).
as §2
The specific activity of the compound of formula (15) against the TNF-alpha response was compared to that seen with the counterscreens (IL-1beta and anti-human TNFR1 antibody).

[2] = system: hTNFα-induced neutrophil recruitment; test: Neutrophil recruitment in mice, compound pre-mixed with hTNFα, i.p.; format: in vivo, Balb/c mice; conditions: for neutrophil recruitment vs TNFα in the absence of the compound: sample 1, ratio compound:TNFα 0.1:1, i.p.
Protocol: In separate studies, compounds of formula (3) and formula (15) were mixed with 20 μM solutions of TNFα dissolved in phosphate buffered saline (PBS) to a concentration of 2 μM, 20 μM and 200 μM. The ratio of each compound to TNFα was, therefore, 0.1:1 (sample 1), 1:1 (sample 2) and 10:1 (sample 3). […] This process separates protein bound compound and free compound. A control sample containing PBS only was processed in the same way to provide a vehicle control for the study. The concentration of eluted protein was determined using a Nanodrop (ND-1000). The TNFα: compound complexes were diluted in PBS to a concentration for injection of 0.03 μg/kg
For the study, typically, each group contained 10 male Balb/c mice (Charles River) apart from an anti-human TNFα antibody positive control, which used a set of 5 mice.
Compound only mice were also included in the study to assess the effect of compound on neutrophil recruitment.
All mice were killed by cervical dislocation two hours post-injection of hTNFα (t=2 h) and the peritoneal cavity was lavaged with 3 mL of FACS buffer (500 mL PBS containing 2 g bovine serum albumin, 6 mL HEPES buffer and […]). Lavage fluid was aspirated and neutrophil numbers were assessed by staining cells with anti-Gr1 PE and anti-CD45 FITC by FACS as detailed below.
100 μL of lavage fluid from each sample was aliquoted into FACS tubes. A FACS cocktail was made up using anti-GR-1 PE (BD cat #553128 Lot #75542) at 1 in 39 dilution and anti-CD45 FITC (BD cat #553080 Lot #80807) at 1 in 19 dilution in FACS buffer. Fc block (BD Cat #553142 Lot #87810) was prepared 1 in 10 with FACS buffer and 10 μL added to each sample 5 minutes before adding the antibody cocktail. […] Samples were then left for 20 mins on ice. 1 mL of FACS Lyse solution (BD Cat #349202 Lot #29076, diluted 1:10 in dH2O) was added to each tube, mixed and left at room temperature for 5 minutes. 1 mL of FACS Buffer was then added to each tube and centrifuged at 400 g for 5 minutes. The FACS buffer was then carefully poured off and the tip of the tube dabbed on absorbent paper to leave the tube completely dry. Then […] of 1 in 10 Reference Bead solution (Sigma cat #P2477 Lot #116K1612) diluted in FACS buffer was added to each tube.
Samples were analysed using FACScalibur II and FloJo software.

TNFα = TNFα (Homo sapiens, UniProt P01375); test: Fluorescence probed thermal denaturation assay (Thermofluor) of TNFα; format: binding; conditions: TNFα + 5% DMSO + compound
TNFα, sequence (P01375 77-233 limits assumed): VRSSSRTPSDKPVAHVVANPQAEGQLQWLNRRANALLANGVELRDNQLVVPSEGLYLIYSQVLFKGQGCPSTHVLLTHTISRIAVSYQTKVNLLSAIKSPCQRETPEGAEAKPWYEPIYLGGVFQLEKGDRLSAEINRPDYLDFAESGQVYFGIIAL
Protocol: A fluorescence probed thermal denaturation assay was performed to assess the effect of the compounds on the thermal stability of TNFα as a measure of compound binding. The reaction mix contained 5 μl of 30×SYPRO® Orange dye (Invitrogen) and 5 μl of TNFα (at 1.0 mg/ml), 37.5 μl PBS, pH 7.4 and 2.5 μl of compound (at 2 mM in DMSO). 10 μl of the mix was dispensed in quadruplicate into a 384 PCR optical well plate and was run on a 7900HT Fast Real-Time PCR System […]. PCR
System heating device was set at 20° C. to 99° C. with a ramp rate of 1.1° C./min; fluorescence changes in the wells were monitored by a Charge-coupled device (CCD). The fluorescence intensity increase was plotted as a function of temperature and the Tm calculated as the midpoint of this denaturation curve (determined as the point of inflection) (Table 1).
Thermofluor measures the change of melting temperature (Tm) of TNFα due to compound either stabilising or disrupting the protein.

[3] = sample 2, ratio compound:TNFα 1:1, i.p.
[4] = sample 3, ratio compound:TNFα 10:1, i.p.

SMILES	IC50 [1] [nM]	inhibition of activation of NF-κB by activating TNF-R1 antibody (TNF-R1)	neutrophil recruitment vs TNFα in the absence of the compound [2]	inhibition of neutrophil recruitment [2, 3] [%]	inhibition of neutrophil recruitment [2, 4] [%]	Tm (° C.) (mean ± sd) (TNFα)	Tm difference (= (TNF + cpd) - (TNF + DMSO)) (TNFα) [°C]
Cc1ccc(C)c(Cn2c(C(O)c3ccncc3)nc3ccc(-c4cnn(C)c4)cc32)c1 (stereo not drawn) [Compound 15]	113	did not inhibit	not significantly different	101	102	78.5 ± 1.1 (n = 4) ° C.	17.1
Cc1ccc(C)c(Cn2c(C(O)c3ccncc3)nc3ccccc32)c1 (stereo not drawn) [Compound 3]	–	–	not significantly different	86	85	73.2 ± 0.6 (n = 4) ° C.	11.8

From patent publication US11674967B2, “Method of identifying potential inhibitors of APO TNFα trimers” (UCB BIOPHARMA SRL, priority 2015, dated 2023)
